Consider 1 compound from ChEMBL document CHEMBL3044907, “Sensitivity of Fusarium verticillioides isolates from rice to a novel cyanoacrylate fungicide” (Crop Prot, 2012).

Series [1] has as its system Fusarium verticillioides. Briefly: Fungicidal activity against Fusarium verticilliodes isolate YZ03 in rice seeds harvested from bakane diseased plants assessed as number of seedlings abnormally elongated or exhibiting symptoms of damping-off at 12.5 ug/ml at 30 degC incubated for 72 hr measured after 3 days under greenhouse trials (reference value: 21.3%). Type of series: functional.

For series [2], the system named is Fusarium verticillioides. In words: Fungicidal activity against Fusarium verticilliodes isolate YZ08 in rice seeds harvested from bakane diseased plants assessed as number of seedlings abnormally elongated or exhibiting symptoms of damping-off at 8.33 ug/ml at 30 degC incubated for 72 hr measured after 3 days under greenhouse trials (reference value: 19.8%). Type of series: functional.

Series [3] has as its system Fusarium verticillioides. Briefly: Fungicidal activity against Fusarium verticilliodes isolate JS07 in rice seeds harvested from bakane diseased plants assessed as number of seedlings abnormally elongated or exhibiting symptoms of damping-off at 25 ug/ml at 30 degC incubated for 72 hr measured after 3 days under greenhouse trials (reference value: 33.8%). The format is functional.

The test system of series [4] is Fusarium verticillioides. Briefly: Fungicidal activity against Fusarium verticilliodes isolate YZ26 in rice seeds harvested from bakane diseased plants assessed as number of seedlings abnormally elongated or exhibiting symptoms of damping-off at 8.33 ug/ml at 30 degC incubated for 72 hr measured after 3 days under greenhouse trials (reference value: 49.3%). The format is functional.

In series [5] the test system is Fusarium verticillioides. In words: Fungicidal activity against Fusarium verticilliodes isolate YZ01 in rice seeds harvested from bakane diseased plants assessed as number of seedlings abnormally elongated or exhibiting symptoms of damping-off at 12.5 ug/ml at 30 degC incubated for 72 hr measured after 3 days under greenhouse trials (reference value: 33.6%). The format is functional.

In series [6] the test system is Fusarium verticillioides. Briefly: Fungicidal activity against Fusarium verticilliodes isolate N05 in rice seeds harvested from bakane diseased plants assessed as number of seedlings abnormally elongated or exhibiting symptoms of damping-off at 25 ug/ml at 30 degC incubated for 72 hr measured after 3 days under greenhouse trials (reference value: 6.2%). The format is functional.

Series [7] has as its system Fusarium verticillioides. In words: Fungicidal activity against Fusarium verticilliodes isolate YZ04 in rice seeds harvested from bakane diseased plants assessed as number of seedlings abnormally elongated or exhibiting symptoms of damping-off at 6.25 ug/ml at 30 degC incubated for 72 hr measured after 3 days under greenhouse trials (reference value: 44.2%). The format is functional.

For series [8], the system named is Fusarium verticillioides. In words: Fungicidal activity against Fusarium verticilliodes isolate YZ11 in rice seeds harvested from bakane diseased plants assessed as number of seedlings abnormally elongated or exhibiting symptoms of damping-off at 12.5 ug/ml at 30 degC incubated for 72 hr measured after 3 days under greenhouse trials (reference value: 33.7%). The format is functional.

For series [9], the system named is Fusarium verticillioides. Briefly: Fungicidal activity against Fusarium verticilliodes isolate N04 in rice seeds harvested from bakane diseased plants assessed as number of seedlings abnormally elongated or exhibiting symptoms of damping-off at 12.5 ug/ml at 30 degC incubated for 72 hr measured after 3 days under greenhouse trials (reference value: 14.5%). The format is functional.

In series [10] the test system is Fusarium verticillioides. Briefly: Fungicidal activity against Fusarium verticilliodes isolate JS03 in rice seeds harvested from bakane diseased plants assessed as number of seedlings abnormally elongated or exhibiting symptoms of damping-off at 8.33 ug/ml at 30 degC incubated for 72 hr measured after 3 days under greenhouse trials (reference value: 15.8%). The format is functional.

The test system of series [11] is Fusarium verticillioides. Briefly: Fungicidal activity against Fusarium verticilliodes isolate N01 in rice seeds harvested from bakane diseased plants assessed as number of seedlings abnormally elongated or exhibiting symptoms of damping-off at 6.25 ug/ml at 30 degC incubated for 72 hr measured after 3 days under greenhouse trials (reference value: 27.4%). Type of series: functional.

The subject of series [12] is Fusarium verticillioides. Briefly: Fungicidal activity against Fusarium verticilliodes isolate N04 in rice seeds harvested from bakane diseased plants assessed as number of seedlings abnormally elongated or exhibiting symptoms of damping-off at 6.25 ug/ml at 30 degC incubated for 72 hr measured after 3 days under greenhouse trials (reference value: 14.5%). Type of series: functional.

For series [13], the system named is Oryza sativa. In words: Effect on germination of healthy Oryza sativa (rice) seed cultivar Fengliangyou 4 at 6.25 to 25 ug/ml at 25 degC after 72 hr. Type of series: ADME, organism-based. The conditions noted are these: in vivo.
For series [14], the system named is Fusarium verticillioides. In words: Fungicidal activity against Fusarium verticilliodes isolate YZ08 in rice seeds harvested from bakane diseased plants assessed as number of seedlings abnormally elongated or exhibiting symptoms of damping-off at 12.5 ug/ml at 30 degC incubated for 72 hr measured after 3 days under greenhouse trials (reference value: 19.8%). The format is functional.

Series [15] relates to Fusarium verticillioides. In words: Fungicidal activity against Fusarium verticilliodes isolate YZ13 in rice seeds harvested from bakane diseased plants assessed as number of seedlings abnormally elongated or exhibiting symptoms of damping-off at 8.33 ug/ml at 30 degC incubated for 72 hr measured after 3 days under greenhouse trials (reference value: 26.8%). The format is functional.

Series [16] relates to Fusarium verticillioides. In words: Fungicidal activity against Fusarium verticilliodes isolate N06 in rice seeds harvested from bakane diseased plants assessed as number of seedlings abnormally elongated or exhibiting symptoms of damping-off at 25 ug/ml at 30 degC incubated for 72 hr measured after 3 days under greenhouse trials (reference value: 9.6%). Type of series: functional.

In series [17] the test system is Fusarium verticillioides. In words: Fungicidal activity against Fusarium verticilliodes isolate YZ13 in rice seeds harvested from bakane diseased plants assessed as number of seedlings abnormally elongated or exhibiting symptoms of damping-off at 25 ug/ml at 30 degC incubated for 72 hr measured after 3 days under greenhouse trials (reference value: 26.8%). The format is functional.

The subject of series [18] is Fusarium verticillioides. Briefly: Fungicidal activity against Fusarium verticilliodes isolate YZ07 in rice seeds harvested from bakane diseased plants assessed as number of seedlings abnormally elongated or exhibiting symptoms of damping-off at 6.25 ug/ml at 30 degC incubated for 72 hr measured after 3 days under greenhouse trials (reference value: 43.2%). The format is functional.

In series [19] the test system is Oryza sativa. In words: Effect on germination of healthy Oryza sativa (rice) seed cultivar Liangyou 6326 at 6.25 to 25 ug/ml at 25 degC after 72 hr. Type of series: ADME, organism-based. The conditions noted are these: in vivo.
The test system of series [20] is Fusarium verticillioides. Briefly: Fungicidal activity against Fusarium verticilliodes isolate YZ12 in rice seeds harvested from bakane diseased plants assessed as number of seedlings abnormally elongated or exhibiting symptoms of damping-off at 12.5 ug/ml at 30 degC incubated for 72 hr measured after 3 days under greenhouse trials (reference value: 45.8%). The format is functional.

The test system of series [21] is Fusarium verticillioides. Briefly: Fungicidal activity against Fusarium verticilliodes isolate JS06 in rice seeds harvested from bakane diseased plants assessed as number of seedlings abnormally elongated or exhibiting symptoms of damping-off at 12.5 ug/ml at 30 degC incubated for 72 hr measured after 3 days under greenhouse trials (reference value: 25.2%). Type of series: functional.

For series [22], the system named is Fusarium verticillioides. Briefly: Fungicidal activity against Fusarium verticilliodes isolate YZ03 in rice seeds harvested from bakane diseased plants assessed as number of seedlings abnormally elongated or exhibiting symptoms of damping-off at 6.25 ug/ml at 30 degC incubated for 72 hr measured after 3 days under greenhouse trials (reference value: 21.3%). Type of series: functional.

For series [23], the system named is Fusarium verticillioides. In words: Fungicidal activity against Fusarium verticilliodes isolate N01 in rice seeds harvested from bakane diseased plants assessed as number of seedlings abnormally elongated or exhibiting symptoms of damping-off at 8.33 ug/ml at 30 degC incubated for 72 hr measured after 3 days under greenhouse trials (reference value: 27.4%). Type of series: functional.

For series [24], the system named is Fusarium verticillioides. In words: Fungicidal activity against Fusarium verticilliodes isolate JS09 in rice seeds harvested from bakane diseased plants assessed as number of seedlings abnormally elongated or exhibiting symptoms of damping-off at 6.25 ug/ml at 30 degC incubated for 72 hr measured after 3 days under greenhouse trials (reference value: 32.6%). Type of series: functional.

With `CCOC(=O)/C(C#N)=C(/N)c1ccccc1`, the Activity turned out to be 0% in the series with Fusarium verticillioides [1]; 0% in the series on Fusarium verticillioides [2]; 0% in the series with Fusarium verticillioides [3]; 1.2% in the series on Fusarium verticillioides [4]; 0% in the series with Fusarium verticillioides [5]; 0% with Fusarium verticillioides [6]. Besides, the Activity amounted to 1.3% in the series on Fusarium verticillioides [7]; 0% in the series with Fusarium verticillioides [8]; 0% in the series on Fusarium verticillioides [9]; 0% in the series with Fusarium verticillioides [10]; 0.8% in the series on Fusarium verticillioides [11]; 1.8% with Fusarium verticillioides [12]. The Activity result in the series with Oryza sativa [13] is recorded as “Non-toxic”; in the series with Fusarium verticillioides [14], 0%; with Fusarium verticillioides [15], 0%; in the series with Fusarium verticillioides [16], 0%; with Fusarium verticillioides [17] it was 0%; with Fusarium verticillioides [18], 1.6%. The Activity result with Oryza sativa [19] is “Non-toxic”; with Fusarium verticillioides [20], 0%; in the series on Fusarium verticillioides [21], 0%; in the series on Fusarium verticillioides [22], 2%; in the series on Fusarium verticillioides [23], 0%; in the series with Fusarium verticillioides [24] it was 4.2%.
